According to patent US20170183318A1, “AMIDE COMPOUNDS, METHODS FOR PREPARATION, AND USE THEREOF AS AGENTS FOR THE TREATMENT AND PREVENTION OF DISEASES CAUSED BY RNA- AND/OR DNA-CONTAINING VIRUSES, AND CONCOMITANT DISEASES” (OBSCHESTVO S OGRANICHENNOI OTVETSTVENNOSTIYU …, priority 2014, published 2017):

What was measured:
Staphylococcus aureus = assay: Murine model of staphylococcal pneumonia (bacterial growth from lung imprints); assay type: in vivo, outbred mice; conditions: reference drug, intravenously, single dose of 20 mg/kg; lung imprints; control 82.5
Experimental: The efficiency of the compounds was evaluated in outbred mice (females) infected with Staphylococcus aureus (mouse-adapted strain). The administration of the compounds was started 5 days before infection, orally at doses of 15 and 30 mg/kg in a volume of 0.2 mL. On day 5, the mice were infected intranasally under brief ether anesthesia by administration of Staphylococcus aureus at a dose of 10^9 CFU in a volume of 0.05 mL. One hour after infection, the administration of the compounds to the mice was continued at the above-indicated doses for additional 2 days. The reference drug was ampicillin administered intravenously at a single dose of 20 mg/kg. The control was mice infected with Staphylococcus aureus intranasally and treated with PBS. The mice were sacrificed two days after, the breast was dissected, and lung imprints were made in Petri dishes with Columbia agar. After incubation for 24 hours at 30° C., the presence (or absence) of Staphylococcus aureus bacterial growth was fixed in comparison with the control. The intensity of bacterial growth was evaluated in scores and expressed in %.

[1] = test system: herpes simplex virus belonging to antigenic type 2; assay: Murine model of experimental herpetic meningoencephalitis (mortality); assay type: in vivo, white outbred mice; conditions: Mus musculus, po, 336 h
Experimental: In the study, herpes simplex virus belonging to antigenic type 2 was used. White outbred mice weighing 7-8 g were infected i/c (intracerebrally) in a volume of 0.05 ml/mouse comprising a dose of 10LD50. The infectious dose of the virus that caused 100% mortality in mice was 10LD50. Each experimental group comprised 20 mice. Intact animals served as control and were hold in a separate room under the same conditions as the experimental animals. The antiviral activity of the compounds of general formula I was studied by oral administration of the compounds to infected mice once daily at a dose of 30 mg/kg/mouse 24, 48, 72, 96, and 120 hours after infection of the animals with the virus. The mice of the control group were administered placebo (0.2 mL of physiological solution) under the same conditions. The animals were monitored for 14 days after infection by registration the mouse death in the groups.
Each animal was subjected to once-daily observation. The observation included the assessment of general behavior and body condition of animals. The animals were handled according to the International Standards.
The activity of the compounds was evaluated by comparing mortality rates in the groups of animals administered a preparation and placebo.

[2] = Rat model of nasopharyngitis induced by formalin (nasal mucosa changes, cell elements in nasal lavage); assay type: in vivo; conditions: Wistar rats, 18 mg/kg for 3 days
Experimental: Nasopharyngitis was induced by intranasal administration of formalin to each nasal passage of rats.
The administration of formalin to the nasal passages of rats leads to the dissemination of inflammation to adjacent tissues, resulting in a clinical pattern similar to the symptoms of nasopharyngitis in a human.
After an acclimatization period, the following groups were formed: • intact animals administered intragastrically a physiological solution in an amount of 0.2 ml, without induction of nasopharyngitis; • a control group consisted of animals administered intragastrically a physiological solution in an amount of 0.2 ml for 3 days after induction of nasopharyngitis; and • animals administered the studied compounds at a dose of 18 mg/kg for 3 days after induction of nasopharyngitis.
Clinical observation of each animal was performed every day at least twice daily.
The caused pathology was characterized by hyperplasia, increased number of caliciform cells, pronounced infiltration of mononuclear cells and leucocytes, and mucus hyperproduction by submucosal glands.
After euthanasia, the inflammation pattern in the nasal passages and throat was studied in each group of animals. The nasal passages were washed with 5 mL of physiological solution and the score of cell elements were counted in 1 μL.

[3] = Solubility in water noted for the isolated product; assay type: physicochemical; conditions: qualitative remark on the isolated product
[4] = test system: Coxsackie A2 virus (strain HCXV A2); assay: Antiviral activity against Coxsackie virus in vivo (mortality and life expectancy of infected mice)
Experimental: In the study a trypsin-dependent strain HCXV A2 was used, previously adapted and causing death in mice from Coxsackie virus infection.
The experiment was carried out in white mice weighing 6 to 7 g. The animals were infected intramuscularly with a dose of 0.1 mL/mouse. The used infectious dose causing mortality in mice was 10LD50.
The ability of compounds to provide a therapeutic effect was determined by the mortality rate of HCXV A2 virus-infected mice in the experimental group relative to the group of untreated animals.
The studied compounds and placebo were administered orally according to the treatment regimen. Normal saline solution was administered to mice as placebo. Intact animals served as a negative control and were hold in a separate room under the same conditions as the experimental animals.
For the experiment, groups were formed with 14-15 animals each. Compounds were administered at a dose of 30 mg/kg of body weight. The studied compounds were administered orally once daily for 7 days (first administration was made 24 hours after infection). The animals were monitored for 15 days during which the animals were weighed and the mortality rate was registered every day.

Which “Bacterial growth, in %” value (Staphylococcus aureus) does the source give for `CC1(C)S[C@@H]2[C@H](NC(=O)[C@H](N)c3ccccc3)C(=O)N2[C@H]1C(=O)O` [Ampicillin, ampicillin, reference compound] here?
Its value is 25 (sporadic colonies (up to 10)).

Which mortality at 30 mg/kg [1] does the source give for `O=C(O)CCCNC(=O)CCc1cnc[nH]1` [Compound 68] here?
Its mortality at 30 mg/kg is 30%.

And the “Mucous membrane of nasal passages: Without changes (number of animals)” value ([2]; number of animals out of n = 10, control 0 of 20)?
Its value is 3.

What about the “Mucous membrane of nasal passages: Discharge mucus from the nasal passages (number of animals)” value ([2]; number of animals out of n = 10, control 20 of 20) of the same molecule?
Its value is 7.

And the Solubility in water [3]?
Its Solubility in water is “freely soluble in water”.

What does the source list for `O=C(O)CCC(O)C(=O)NCCc1cnc[nH]1` (stereo not drawn) [Compound 67]?
Solubility in water [3]: freely soluble in water; inhibition in vivo at 30 mg/kg ([4]; Mus musculus, po, 168 h, 30 mg/kg orally once daily for 7 days, vs virus control, read-out: Protective index (%)): 50%; mortality at 30 mg/kg ([4]; Mus musculus, po, 360 h, read-out: Total mortality, %): 35.7%; Average life expectancy (days), Compared with control ([4]; difference vs virus control, 30 mg/kg orally once daily for 7 days): +16.2 days; Average life expectancy (days), Relative ([4]; mice infected with 10LD50 HCXV A2, 30 mg/kg orally once daily for 7 days): 27.0 days

With `CC(C)(CCC(=O)O)C(=O)NCCc1cnc[nH]1` [Compound 45] as the molecule, how does the Solubility in water [3] read?
The Solubility in water was “freely soluble in water”.

For `NS(=O)(=O)CCC(=O)NCCc1c[nH]cn1` [Compound 145], which Solubility in water [3] is on record?
Its Solubility in water is “freely soluble in water”.
